Data: US8568986B2, “Method of selecting an agent that improves periodontal disease” (Kao Corporation, priority 2009, dated 2013)

Legend:
[1] = system: Vibrio harveyi BB170 strain (AI-2 reporter bacterium); test: AI-2 activity inhibitory effect, photogenesis intensity of AI-2 reporter bacterium after addition of DPD; format: cell-based; settings: relative to control with only DPD added (=100); 10 min preincubation, 4 h culture at 30° C
Description: The method of screening an improving agent or preventive agent for periodontal disease of the present invention containing mixing a bacterium having an autoinducer-2-mediated quorum sensing system with a test drug and selecting a test drug having an autoinducer-2 activity inhibitory effect as an improving agent or preventive agent for periodontal disease. For example, a Vibrio harveyi BB 170 strain is prepared in a culture medium at 1000- to 10000-fold dilution (preferably 4000- to 5000-fold) and preincubated with a test compound solution at room temperature for 1 to 30 minutes (preferably for 10 minutes). Then, AI-2 was added to the resultant solution, which was subjected to aerobic shaking culture at 30±5° C. Two (2) to six (6) hours later (preferably four (4) hours later), the photogenesis intensity is measured with a chemiluminescence analyzer. The final concentration of AI-2 is from 0.001 to 100 μM (preferably 10 μM). The final concentration of the test compound solutions is from 0.0001 to 0.1% or from 1 to 100 μM. Each concentration is not limited thereto. The photogenesis intensity when a control obtained by adding only the AI-2 is mixed with the test compound solution is measured as a relative value to the photogenesis intensity of control so that the AI-2 activity inhibitory effect of the test compound can be measured. The bacterium having an autoinducer-2-mediated quorum sensing system is not particularly limited. A reporter bacterium which recognizes the autoinducer-2 thereby emitting light is preferred and dental bacteria and periodontal pathogens can also be used. Further, the bacterium having an autoinducer-2-mediated quorum sensing system which is collected from the oral cavity of a subject can also be used as a specimen.
A Vibrio harveyi BB170 strain (cultured in an AB medium at 30° C. overnight) was used as an AI-2 reporter bacterium and it was 4500-fold diluted with an AB culture medium to prepare a reporter bacterium liquid. A reporter bacterium liquid was mixed with each of the test drugs, which was preincubated at room temperature for 10 minutes, followed by addition of DPD and aerobic shaking culture at 30° C. Four (4) hours later, the photogenesis intensity was measured with the chemiluminescence analyzer (LB940 type, manufactured by Berthold Japan co. ltd.). AI-2 was quantified from the measured photogenesis intensity in the same manner as described in Example 1.
The amount of AI-2 was a relative value to the amount of DPD of the control (the amount of AI-2) when one obtained by adding only the DPD without adding the test drugs was used as a control.

syrian hamsters = test: Alveolar bone resorption in floss-tied mandibular first molars of syrian hamsters; format: in vivo; settings: syrian hamster; for Alveolar bone resorption depth (mm): 200 μL of 10 μM solution dropwise to floss-tied first molars twice a day for two weeks, control 2.87; for absorption of the alveolar bone: added dropwise to the oral cavity for two weeks
Description: The mandibule of syrian hamsters (three males, 7 weeks old) was extracted under anesthesia and a photograph was taken under the stereoscopic microscope. An evaluation site is the lingual surface of extraction mandibule. The obtained photographs were subjected to image analysis and a vertical distance from the first molar mesial cusp tip to the alveolar tip was measured.
Floss was tied around the left and right mandibular first molar teeth of other syrian hamsters (three males, 7 weeks old). From the next day on, 200 μL of a PBS solution containing 1% DMSO (concentration: 10 μM) of Compound 1 or 2 above was added dropwise to the same tied sites twice a day for two weeks and they were bred.
After the end of breeding, the mandibule was extracted under anesthesia and photographs were taken under the stereoscopic microscope. An evaluation site is the lingual surface of extraction mandibule and the taken photographs were subjected to image analysis. […] a vertical distance from the first molar mesial cusp tip to the alveolar tip was measured.
The alveolar bone resorption depth (a value before addition is subtracted from a value after addition for two weeks) was measured from the vertical distance from the first molar mesial cusp tip to the alveolar tip before addition of the test drug and after addition of the test drug for two weeks.

COc1ccc(C2OC(=O)C=C2Br)cc1 (centres unmarked) [Compound 1, 4-bromo-5-(4-methoxyphenyl)-2(5H)-furanone]
AI-2 amount (relative value) [1]: 29.6
Alveolar bone resorption depth (mm) (syrian hamsters): 2.50 mm
absorption of the alveolar bone (syrian hamsters): suppressed

O=C1OC(O)C(Br)=C1Br (centres unmarked) [Compound 2, 3,4-dibromo-5-hydroxy-2(5H)-furanone]
AI-2 amount (relative value) [1]: 0
Alveolar bone resorption depth (mm) (syrian hamsters): 2.62 mm
absorption of the alveolar bone (syrian hamsters): suppressed

COc1ccc(C2(OC)OC(=O)C=C2Br)cc1 (centres unmarked) [Compound 3, 4-bromo-5-methoxy-5-(4-methoxyphenyl)-2(5H)-furanone]
AI-2 amount (relative value) [1]: 62.5

COc1ccc(C2(Oc3ccc(C(=O)O)cc3)OC(=O)C=C2Br)cc1 (centres unmarked) [Compound 4, 4-{[3-bromo-2-(4-methoxyphenyl)-5-oxo-2,5-dihydro-2-furanyl]oxy}benzoate]
AI-2 amount (relative value) [1]: 76.0

CC1=C(O)C(=O)C(C)O1 (centres unmarked) [Compound 5, 4-hydroxy-2,5-dimethyl-3(2H)-furanone, reference compound]
AI-2 amount (relative value) [1]: 77.0

COC1(c2ccccc2)OC=C(c2ccccc2)C1=O (centres unmarked) [Compound 6, 2-methoxy-2,4-diphenyl-3(2H)-furanone, reference compound]
AI-2 amount (relative value) [1]: 88.9

CCCCCC1=CCCC1=O [Compound 7, 2-pentyl-2-cyclopentene-1-one, reference compound]
AI-2 amount (relative value) [1]: 63.4
